Values quoted from earlier work, collected in paper PMC10318822, “Phase 1 dose-escalation study to evaluate the safety, tolerability, pharmacokinetics, and anti-tumor activity of FCN-159 in adults with neurofibromatosis type 1-related unresectable plexiform neurofibromas” (BMC Medicine, 2023).
Like-named read-outs stand apart in the source and are kept apart here.

How the values were obtained:
[1] = tested on: NF1-related PN; settings: cited from earlier work
[2] = tested on: patients; settings: in vivo; cited from earlier work
[3] = cited from earlier work; for RP2D: twice daily
[4] = tested on: NF1-related PN; parameters: method as in PMID 33507822; settings: adult patients with NF1 and progressive PN, 2 mg/m^2 twice daily, n = 8/19; cited from earlier work
[5] = tested on: patients; parameters: method as in PMID 20215549; settings: cited from earlier work

For Cn1cnc2c(F)c(Nc3ccc(Br)cc3Cl)c(C(=O)NOCCO)cc21 [selumetinib], which “Partial responses (PRs)” value ([1]; interim results, phase II study in adults (NCT02407405), n = 16/23) is on record?
The value was 69%.

What about the Response rate ([1]; pediatric patients with NF1-related PN) of the same molecule?
The Response rate was 40–70%.

And the “Partial responses (PRs)” value ([1]; phase I study, children, 20–30 mg/m^2 twice daily, n = 17/24)?
The value was 71%.

What about the “Partial responses (PRs)” value ([1]; phase II trial, n = 34/50) of the same molecule?
The value was 68%.

What about the “Patients reporting AEs of CTCAE grade 3 or above” value [2] of the same molecule?
Its value is “up to 71.4%”.

And the “Patients with acneiform dermatitis” value [2]?
Its value is 62.5%.

And the “Visual function AEs” value [2]?
Its value is 17.9%.

What about the “Dose proportionality of plasma concentration increase” value [3] of the same molecule?
The value was “less than dose-proportional”.

And the Terminal half-life [3]?
Its Terminal half-life is 6.0 to 6.9 h.

What about the “Time to Cmax” value ([3]; human, in vivo) of the same molecule?
Its value is 1.00 to 1.10 h.

And the RP2D [3]?
The RP2D was 25 mg/m^2.

With O=C(NOC[C@H](O)CO)c1ccc(F)c(F)c1Nc1ccc(I)cc1F [mirdametinib] as the molecule, how does the Response rate [4] read?
Its Response rate is 42%.

And the Blurred vision [5]?
Its Blurred vision is 10.6%.

And the Patients with rash [5]?
The Patients with rash was 78.8%.

And the Visual disturbance [5]?
Its Visual disturbance is 13.6%.

And the Terminal half-life [3]?
The Terminal half-life was 4.6 to 18.0 h.

And the “Terminal half-life, average” value [3]?
The value was 7.8 h.

And the RP2D [3]?
Its RP2D is 2 mg/m^2.
